# Measured values from patent publication US20170209534A1, “Pseudhymenochirins As Agents For Treatment Of Cancer And Microbial Infections” (priority 2014, published 2017).
# Like-named read-outs stand apart in the source and are kept apart here. No end group written: not given here.
# Key:
# E. faecalis ATCC 29212 = assay: MIC by micro-dilution, E. faecalis; type: cell-based, Enterococcus faecalis; details: reference strain
# Procedure: (§1) Minimum Inhibitory Concentration (MIC) of the peptides was determined in duplicate in three independent experiments by standard micro-dilution methods according to CLSI guidelines (Clinical Laboratory and Standards Institute 2008a, 2008b) using 96-well microtitre cell-culture plates.
# (§2) For bacteria assays, serial dilutions of the peptides (0.6-80 μM) in Mueller-Hinton broth (50 μL) were mixed with an inoculum of 50 μL of 10^6 colony forming units (CFU)/mL) from a log-phase culture. The peptide and inoculum mixture was incubated for 18 h at 37° C. in a humidified atmosphere. For yeast, an inoculum of 5×10^4 CFU/mL from Candida albicans was incubated in the presence of serial dilutions of the peptides (0.6-80 μM) in RPMI 1640 medium for 48 h at 35° C. After incubation, the absorbance at 630 nm of each well was determined using a microtiter plate reader.
# P. aeruginosa = assay: MIC by micro-dilution, P. aeruginosa; type: cell-based; details: reference strain
# Procedure: as §1, §2
# (§3) As a control, incubations were carried out in parallel with increasing concentrations of antibiotics wherever the isolate was originally susceptible (ampicillin for S. aureus and E. coli, ciprofloxacin for K. pneumoniae and P. aeruginosa, and amphotericin B for C. albicans).
# C. albicans = assay: MIC by micro-dilution, C. albicans; type: cell-based, Candida albicans; details: reference strain; RPMI 1640, 48 h at 35° C.
# Procedure: as §1, §2, §3
# S. epidermidis = assay: MIC by micro-dilution, S. epidermidis; type: cell-based; details: for Minimum inhibitory concentration S. epidermidis RP62A: strain RP62A; for Minimum inhibitory concentration S. epidermidis RP62A/1: strain RP62A/1; for Minimum inhibitory concentration S. epidermidis T6/19: strain T6/19; for Minimum inhibitory concentration S. epidermidis T37/8: strain T37/8
# Procedure: as §1, §2
# A. baumannii = test system: A. baumannii
# Procedure: (§4) Acinetobacter strains (NM8, NM35, NM75, NM109, and NM124) were isolated from different hospitals in the UAE. The Acinetobacter strains were characterised based on PCR analysis. […] Stenotrophomonas maltophilia strains (B32/1, B32/4, B5/5, B6/2, and U8708) were isolated from patients with bloodstream infection as discussed in Jumaa et al, 2006.
# as §1, §2
# S. maltophilia = test system: S. maltophilia
# Procedure: as §4, §1, §2
# in vitro = type: cell-based
# Procedure: (§5) For cytotoxicity assay, the effect of the peptides on three different types of cancer cells were analysed, human non-small cell lung adenocarcinoma A549 cells, human breast adenocarcinoma MDA-MB-231 cells and human colorectal adenocarcinoma HT-29 cells. As control, HUVEC cell line was selected.
# (§6) A549 cell line was maintained in RPMI 1640 medium containing 2 mM L-glutamine and supplemented with 10% FCS at 37° C. MDA-MB-231 and HT-29 cell lines were maintained in DMEM medium supplemented with 10% FCS at 37° C. The medium for cancer cells were further supplemented with antibiotics, penicillin 50 U/mL and streptomycin […]. HUVEC cells were maintained in EndoGRO MV-VEGF Complete Media Kit at 37° C.
# (§7) The cells from each of the four cell lines were seeded individually in a 96-wells plate at a cell density of 5×10^3 cells/well. […]
# (§8) The effect of the peptides on the cell viability was determined by the measurement of the concentration of ATP using CellTitre-Glo Luminescent Cell Viability assay. Luminescent signals were measured using a GLOMAX Luminometer system.
# (§9) The LC50 value was calculated for both the peptides for individual cell lines by conducting non-linear regression analysis using commercially available software (SPPS version 17.0; SPS Inc, Chicago, Ill., USA). […]
# [1] = test system: human colorectal adenocarcinoma HT-29 cells; assay: Viability assay (CellTiter-Glo, ATP), HT-29; type: cell-based; details: 24 h exposure; mean ± S.E.M.; read-out: LC50 HT-29
# Procedure: as §5, §6, §7, §8, §9
# E. coli = assay: MIC by micro-dilution, E. coli; type: cell-based; details: reference strain
# Procedure: as §1, §2, §3
# K. pneumoniae = assay: MIC by micro-dilution, K. pneumoniae; type: cell-based; details: reference strain
# Procedure: as §1, §2, §3
# [2] = test system: human breast adenocarcinoma MDA-MB-231 cells; assay: Viability assay (CellTiter-Glo, ATP), MDA-MB-231; type: cell-based; details: 24 h exposure; mean ± S.E.M.; read-out: LC50 MDA-231
# Procedure: as §5, §6, §7, §8, §9
# [3] = test system: S. aureus (ATCC 25923 and MRSA clinical isolates); type: cell-based, Staphylococcus aureus; details: for Minimum inhibitory concentration S. aureus ATCC 25923 / Minimum inhibitory concentration S. aureus S908: ATCC 25923; for Minimum inhibitory concentration S. aureus 127/08 / Minimum inhibitory concentration S. aureus 145/08 / Minimum inhibitory concentration S. aureus 274/08 / Minimum inhibitory concentration S. aureus T4/6: MRSA clinical isolate
# Excerpt: Six clinical sporadic isolates of MRSA were isolated from the wounds of patients admitted to Tawam Hospital (Al Ain, UAE). The strains were characterised by multi-locus sequence typing (MLST), Staphylococcal cassette chromosome (SCCmec) typing, accessory gene regulator (agr) typing, Staphylococcus protein A (spa) typing, and toxin gene carriage (Sonnevend et al., 2012). The isolated strains (127/08, 145/08, 274/08, V4180, S908, and T4/6) were resistant to all β-lactam antibiotics tested and to a range of non-β-lactam antibiotics.
# as §1, §2, §3
# [4] = test system: human red blood cells (RBC); assay: Haemolysis assay; type: cell-based
# Procedure: (§10) For analysis of the haemolytic activity, RBCs (2×10^7 cells) taken from a healthy donor in DBPS, pH 7.4 (100 μL) were incubated with Ps-1Pb and Ps-2 Pa respectively in varying concentrations ranging from 1.6 μM to 100 μM of the peptides for a period of 1 hour at 37° C. After 1 hr, the samples were centrifuged at 12000 rpm for 15 seconds and the supernatant was collected. Absorbance of the supernatant was measured at 450 nm.
# (§11) As control, the RBCs at a concentration of 2×10^7 were incubated in DBPS as a negative control to detect the absorbance in the absence of haemolysis. In addition, positive control was also maintained in which the RBC at a concentration of 2×10^7 was incubated with DPBS and 1% v/v Tween-20. The controls were centrifuged at 12000 rpm for 15 seconds and an absorbance reading was taken for the supernatant at 450 nm.
# (§12) The LC50 value was taken as the mean concentration of peptide producing 50% haemolysis in three independent experiments.
# Haemolysis assay = type: cell-based, human; details: human, pH 7.4
# Procedure: as §10, §11, §12
# Acinetobacter strains = details: strains NM8, NM35, NM75, NM109, NM124; Mechkarska et al., 2013; cited from earlier work
# [5] = test system: Stenotrophomonas maltophilia strains; details: all Stenotrophomonas strains (B32/1, B32/4, B5/5, B6/2, U8708); cited from earlier work
# S. aureus (ATCC 25923) = type: cell-based; details: 4×MIC, within 180 min
# Procedure: In order to determine the rate at which the peptides caused cell death, log-phase cultures of S. aureus (ATCC 25923) and E. coli (ATCC 25726) at a concentration of 0.5×10^6 CFU/mL in Mueller-Hinton broth (1 ml) were incubated in polypropylene tubes at 37° C. with Ps-1Pb at a concentration of 4×MIC. Control incubations in the absence of peptide were also carried out. Aliquots of 25 μl were removed at the time intervals 0, 0.5, 1, 2, 3, 4 and 24 hrs and the CFU of the serially diluted samples was determined on Mueller-Hinton agar plates. The time required for 99.9% cell death was determined.
# [6] = 1 hour at 37° C., mean ± S.E.M., read-out: LC50 RBC (50% haemolysis)
Molecule,Minimum inhibitory concentration E. faecalis ATCC 29212 (E. faecalis ATCC 29212) [µM],Minimum inhibitory concentration P. aeruginosa (P. aeruginosa) [µM],Minimum inhibitory concentration C. albicans (C. albicans) [µM],Minimum inhibitory concentration S. epidermidis RP62A (S. epidermidis) [µM],Minimum inhibitory concentration S. epidermidis RP62A/1 (S. epidermidis) [µM],Minimum inhibitory concentration S. epidermidis T6/19 (S. epidermidis) [µM],Minimum inhibitory concentration S. epidermidis T37/8 (S. epidermidis) [µM],Minimum inhibitory concentration A. baumannii NM8 (A. baumannii) [µM],Minimum inhibitory concentration A. baumannii NM35 (A. baumannii) [µM],Minimum inhibitory concentration A. baumannii NM75 (A. baumannii) [µM],Minimum inhibitory concentration A. baumannii NM109 (A. baumannii) [µM],Minimum inhibitory concentration A. baumannii NM124 (A. baumannii) [µM],Minimum inhibitory concentration S. maltophilia B5/5 (S. maltophilia; clinical isolate) [µM],Minimum inhibitory concentration S. maltophilia B6/2 (S. maltophilia; clinical isolate) [µM],Minimum inhibitory concentration S. maltophilia B32/1 (S. maltophilia; clinical isolate) [µM],Minimum inhibitory concentration S. maltophilia B32/4 (S. maltophilia; clinical isolate) [µM],Minimum inhibitory concentration E. coli (E. coli) [µM],Minimum inhibitory concentration K. pneumoniae (K. pneumoniae) [µM],Minimum inhibitory concentration S. aureus V4180 [3] [µM],Minimum inhibitory concentration S. aureus ATCC 25923 [3] [µM],other results
"GIFPIFAKLLGKVIKVASSLISKGRTE [Pseudhymenochirin-2Pa, Pseudhymenochirin-2 Pa]",20,>80,80,5,2.5,5,10,20,10,10,10,20,40,20,10,10,>80,>80,10,5,"Minimum inhibitory concentration S. maltophilia U8908 (S. maltophilia; clinical isolate): 20 µM; CC50 at 24 h (in vitro; 24 h exposure, non-neoplastic cells, mean ± S.E.M., read-out: LC50 HUVEC): 68 µM; CC50 [1]: 11.5 ± 2.6 µM; CC50 [2]: 6.2 ± 0.6 µM; Minimum inhibitory concentration S. aureus S908 [3]: 10 µM; Minimum inhibitory concentration S. aureus 127/08 [3]: 5 µM; Minimum inhibitory concentration S. aureus 145/08 [3]: 10 µM; Minimum inhibitory concentration S. aureus 274/08 [3]: 10 µM; Minimum inhibitory concentration S. aureus T4/6 [3]: 10 µM; CC50 [4, 6]: 6 µM; haemolytic activity (in words) ([4]; human erythrocytes): appreciable haemolytic activity; HC50 at 1 hour (Haemolysis assay; [6]): 6.2 ± 1 µM"
CN(C)c1cc(NC(=O)CNC(C)(C)C)c(O)c2c1C[C@H]1C[C@H]3[C@H](N(C)C)C(O)=C(C(N)=O)C(=O)[C@@]3(O)C(O)=C1C2=O [tigecycline],–,–,–,–,–,–,–,–,–,–,–,–,–,–,–,–,–,–,–,–,susceptibility of Acinetobacter strains (in words) (Acinetobacter strains): sensitive
colistin,–,–,–,–,–,–,–,–,–,–,–,–,–,–,–,–,–,–,–,–,susceptibility of Acinetobacter strains (in words) (Acinetobacter strains): sensitive
co-trimoxazole,–,–,–,–,–,–,–,–,–,–,–,–,–,–,–,–,–,–,–,–,MIC against Stenotrophomonas strains [5]: < 5 µg/mL
IKIPSFFRNILKKVGKEAVSLIAGALKQS [Pseudhymenochirin-1Pb],10,20,80,2.5,1.25,2.5,2.5,10,5,5,5,5,10,5,5,5,10,20,5,5,"MIC against clinical isolates of A. baumannii (range) (A. baumannii): 5 to 10 µM; MIC against clinical isolates of S. maltophilia (range) (S. maltophilia): 5 to 10 µM; Minimum inhibitory concentration S. maltophilia U8908 (S. maltophilia): 5 µM; CC50 at 24 h (in vitro; human): 5.6 ± 0.9 µM; Minimum inhibitory concentration S. aureus S908 [3]: 5 µM; Minimum inhibitory concentration S. aureus 127/08 [3]: 5 µM; Minimum inhibitory concentration S. aureus 145/08 [3]: 10 µM; Minimum inhibitory concentration S. aureus 274/08 [3]: 5 µM; Minimum inhibitory concentration S. aureus T4/6 [3]: 5 µM; haemolytic activity (in words) [4]: high haemolytic activity; less cytotoxic to human erythrocytes as compared to the tumour cells [4]: 3-11 fold; HC50 at 1 hour (Haemolysis assay): 28 ± 2 µM; killing of the bacteria, S. aureus (S. aureus (ATCC 25923)): > 99.9%"
C[C@@H](O)[C@H]1C(=O)N2C(C(=O)O)=C(S[C@@H]3CN[C@H](C(=O)N(C)C)C3)[C@H](C)[C@H]12 [meropenem],–,–,–,–,–,–,–,–,–,–,–,–,–,–,–,–,–,–,–,–,MIC against Stenotrophomonas strains [5]: > 32 µg/mL
